Test results reported in patent US20120196895A1, “NOVEL FORMS OF EPERISONE” (Bionevia Pharmaceuticals, Inc., priority 2009, published 2012).
Where a name gives a salt, the structure may show the parent alone.

Test: Solubility determinations of crystalline forms of racemic eperisone in water
Type: physicochemical
Details: for Solubility: HPLC-grade water, slurry on rotating wheel 46.5 hours at ambient temperature (about 19° C.), filtrate dried and weighed; for Relative solubility among the forms: ranking of the Table 10 solubilities in water
Protocol: The solubilities of the crystalline forms of racemic eperisone were determined as follows. Each experiment was conducted in a one-dram vial by adding weighed amounts of solid salt in portions to a weighed amount of HPLC-grade water until a slurry was obtained. In the case of the mesylate salt, a slurry was not obtained; solid addition was stopped while a solution was still present. Each vial was capped and placed on a rotating wheel for 46.5 hours at ambient temperature. Each vial was removed from the wheel. The ambient temperature at the time of removal was about 19° C. The contents of each vial were vacuum filtered through Whatman Grade 1 filter paper. Solids adhering to the inside of the vial were not recovered. Each filtrate was weighed, dried under diaphragm pump pressure over phosphorus pentoxide, and the resulting solid residue was weighed. Each filter cake was allowed to dry in the air overnight and was weighed.

SMILES | Solubility [mg/mL] | Relative solubility among the forms (listed as racemic eperisone mesylate) | Relative solubility among the forms (listed as racemic eperisone fumarate)
CCc1ccc(C(=O)C(C)CN2CCCCC2)cc1 (racemic) [Mesylate, (2RS)-1-(4-ethylphenyl)-2-methyl-3-piperidin-1-yl-propan-1-one] | >392.2 | most soluble | –
CCc1ccc(C(=O)C(C)CN2CCCCC2)cc1 (racemic) [Fumarate, (2RS)-1-(4-ethylphenyl)-2-methyl-3-piperidin-1-yl-propan-1-one] | 16.8 | – | least soluble
CCc1ccc(C(=O)C(C)CN2CCCCC2)cc1 (racemic) [Maleate, (2RS)-1-(4-ethylphenyl)-2-methyl-3-piperidin-1-yl-propan-1-one] | 20.7 | – | –

Other lines, results leading:

Solubility [mg/mL] | Relative solubility among the forms (listed as racemic eperisone mesylate) | Relative solubility among the forms (listed as racemic eperisone fumarate) | SMILES
210.7 | – | – | CCc1ccc(C(=O)C(C)CN2CCCCC2)cc1 (racemic) [Hydrochloride, (2RS)-1-(4-ethylphenyl)-2-methyl-3-piperidin-1-yl-propan-1-one, reference compound]
114.7 | – | – | CCc1ccc(C(=O)C(C)CN2CCCCC2)cc1 (racemic) [Succinate, (2RS)-1-(4-ethylphenyl)-2-methyl-3-piperidin-1-yl-propan-1-one]
